Data: US20110124842A1 (priority 2003, published 2011)
Like-named read-outs stand apart in the source and are kept apart here.

How the values were obtained:
IgG 4E10 = experiment: Competitive ELISA (IC50): peptide competes with biotinylated 4E10-epitope peptide for IgG 4E10; assay type: binding, human
Description: IC50, were determined by competitive ELISA using a constant concentration of biotinylated peptide and IgG with a variable concentration of gp41 peptides. Microwells were coated overnight at 4° C. with 50 μl PBS containing neutravidin (Pierce; 4 μg/ml). […] A mixture of a biotinylated 4E10-epitope peptide, […](biotin)-NH2 (SEQ ID NO: 88) (20 nM), IgG 4E10 (0.2 nM), and the competing peptide analog (3-fold dilution series starting at 10 μM) in 0.4% non-fat dry milk, 0.02% Tween and PBS was incubated in a separate 96-well plate at 37° C. for 2 hours. After washing the blocked plate, the mixture of 4E10, biotinylated peptide and competing peptide was added to the wells. After 20 minutes at room temperature, the Wells were washed five times, and a 1:500 dilution of goat anti-human IgG F(ab′)2 HRP conjugate (Pierce) was added. Following incubation at RT for 40 minutes, the wells were washed five times, and developed by adding 50 μl of TMB solution (Pierce) according to the manufacturer's instructions. After ˜20 minutes, wells containing TMB solution were stopped by adding 50 μl of H2SO4 (2M) and the O.D. at 450 nm was read on a microplate reader (Molecular Devices). The concentration of competitor peptide corresponding to a half-maximal signal (IC50) was determined by interpolation of the resulting binding curve. Each peptide competitor was tested in duplicate in at least two separate experiments.
IC50s were determined by competitive ELISA using a constant concentration of biotinylated peptide and IgG with a variable concentration of gp41 peptides. Microwells were coated overnight at 4° C. with 50 μl PBS containing neutravidin (Pierce; 4 μg/ml). […] Meanwhile, a mixture of a biotinylated 4E10-peptide epitope, […](biotin)-NH2 (SEQ ID NO: 88), (20 nM), IgG 4E10 (0.2 nM), and the competing peptide analogue (3-fold dilution series starting at 10 μM) in 0.4% NFDM, 0.02% Tween and PBS was incubated in a separate 96-well plate at 37° C. for 2 h. After washing the blocked plate, the mixture of 4E10, biotinylated peptide and competing peptide was added to the wells. After 20 min at room temperature, the wells were washed five times, and a 1:500 dilution of goat anti-human IgG F(ab′)2 HRP conjugate (Pierce) was added. Following incubation at RT for 40 min, the wells were washed five times, and developed by adding 50 μl of H2SO4 (2 M), and the O.D. at 450 nm was read on a microplate reader (Molecular Devices). The concentration of competitor peptide corresponding to a half-maximal signal (IC50) was determined by interpolation of the resulting binding curve. Each peptide competitor was tested in duplicate in at least two separate experiments.

HIV-1JR-FL = experiment: Peptide effect on neutralization by antibodies and sera, pseudotyped virus, U87.CD4.CCR5 cells; assay type: cell-based; conditions: FIG. 50
Description: FIG. 50 represents graphs showing the effect of peptide […]-NH2 (SEQ ID NO: 8) on neutralization of HIV-1 by polyclonal antibodies and sera. HIV-1JR-FL, pseudotyped using the pNL4-3.Luc reporter plasmid, was assayed for neutralization using pooled polyclonal IgG from HIV-1 seropositive individuals (HIVIG), broadly neutralizing serum from the FDA2 individual and normal human serum spiked with 4E10 at 200 μg/ml in the undiluted serum. Neutralization assays were performed using U87.CD4.CCR5 cells as target cells, in the presence (open symbols) or absence (closed symbols) of peptide […]-NH2 (SEQ ID NO: 8). Note that the zero point in serum dilution corresponds to only 30 μg/ml 94-1 being present.
To further investigate the interaction of peptide analogs and 4E10, the inhibitory effect of the best analogs on neutralization by 4E10 was assessed. Neutralization assays were performed in two different formats. In the first, replication competent HIV-1SF162 was assayed for neutralization using TZM-b1 cells as indicator cells (Wei, X., 2002). Alternatively, a pseudotype assay was used in which recombinant HIV-1JR-CSF virions, competent for a single round of infection, were generated using the luciferase reporter plasmid pNL4-3.Luc.R-E-, as described previously (Connor, R. I., 1995; Zwick, M. B., 2003), and the pseudovirus assayed for neutralization using U87.CD4.CCR5 cells as target cells (Bjorndal, A., 1997). In all cases, the competitor peptide ([…]-NH2; SEQ ID NO: 8) and IgG 4E10 were pre-incubated for 30 minutes at 37° C. (60 μg/ml), then the mixture was added (1:1 by volume) to HIV-1, and the resulting mixture incubated for a further hour at 37° C. The mixture of peptide, 4E10, and HIV-1 was then added (1:1 by volume) to the target cells, and the assay developed using luciferase reagent (Promega) following 48-72 hour incubation at 37° C. The degree of virus neutralization was determined as a percentage reduction of viral infectivity against an Ab-free control. All experiments were performed in triplicate and repeated at least twice with similar results.

**Q.** For “NWFDITNWLWYIKKKK [Peptide 94-1, NWFDITNWLWYIKKKK-NH2]”, which “improvement in 4E10 binding (IC50) over the starting peptide NWFDITNWLWKKKK-NH2” value (IgG 4E10) is on record?
**A.** 4 fold

**Q.** And the “improvement in IC50 compared to KGND” value (IgG 4E10)?
**A.** over 1000 fold

**Q.** And the IC50 (IgG 4E10; Table 5, unconstrained peptide analogs, 4E10 binding, read-out: IC50)?
**A.** 10 nM

**Q.** What about the IC50 (IgG 4E10; Table 7, 4E10 peptide epitopes, read-out: IC50) of the same sequence?
**A.** 10 nM

**Q.** And the “higher affinity of 4E10 than to the original peptide KGND” value (IgG 4E10; as determined by surface plasmon resonance and ELISA)?
**A.** approximately 10^3 fold

**Q.** And the IC50 (IgG 4E10; read-out: IC50 (4E10 binding, competitive ELISA))?
**A.** 10 nM

**Q.** What about the “block of neutralization by normal sera spiked with 4E10” value (HIV-1JR-FL) of the same sequence?
**A.** blocks neutralization

**Q.** And the “block of neutralization by the reference sera FDA2” value (HIV-1JR-FL)?
**A.** does not block neutralization

**Q.** And the “block of neutralization by polyclonal IgG from HIV-1 infected donors” value (HIV-1JR-FL; HIVIG)?
**A.** does not block neutralization
